Data reported in publication PMC9103439, “Cyclo(His-Pro) Exerts Protective Carbonyl Quenching Effects through Its Open Histidine Containing Dipeptides” (Nutrients, 2022).
Where a name gives a salt, the structure may show the parent alone.

How the values were obtained:
[1] = Quenching activity towards HNE (residual HNE by HPLC-UV); details: for HNE Quenching (%) 1 h: percentage of quenched HNE at 1 h; for HNE Quenching (%) 2 h: percentage of quenched HNE at 2 h; for HNE Quenching (%) 3 h: percentage of quenched HNE at 3 h
Experimental: The reactivity towards HNE was tested for each peptide separately, by monitoring within 3 h from the incubation the residual HNE via HPLC-UV, as previously reported. Minor modifications of the method were implemented. A Kinetex C18 column (25 mm × 2.10 mm, particle size 2.6 µm, pore size 100 Å, Phenomenex, Castel Maggiore, Italy) was used instead and the elution of residual HNE was provided at 40 °C by 300 µL/min flow rate of aqueous ammonium acetate (10 mM) containing 20% acetonitrile. For active compounds, the formation of HNE adduct was confirmed by mass spectrometry. Samples were diluted in ACN/H2O/formic acid, 50/50/0.1, v/v/v solution down to a suitable concentration and pumped at 5 µL/min directly into ESI capillary (Finnigan Ion Max, Thermo Fisher Scientific, Rodano, Italy) and 3.5 kV voltage, 270 °C capillary temperature, 35 V capillary voltage and 50 V tube lens were applied to ensure sample nebulization. Spectra were acquired in positive ion mode for 5 × 10^5 ions per scan, by using a LTQ-Orbitrap XL-ETD analyzer (Thermo Fisher Scientific, Rodano, Italy) operating in a 150–700 m/z scan range at a resolution of (FWHM at m/z 400).

[2] = Serum stability (LC-MS, MRM); format: in vitro ADME, human; details: 37 °C; for half-life at 5 µM: human, read-out: Serum Stability t1/2
Experimental: (§1) Serum stability was measured as previously described. Briefly, analytes were spiked separately in pre-heated (37 °C) serum aliquots down to a final concentration of 5 µM. The residual concentration of analyte was measured at the beginning and after 5, 15, 30, 60 and 120 min by means of LC-MS. Prior to analyses, hydrolysis was blocked at the desired time points diluting with 9 volumes of acetonitrile at 4 °C to provide protein precipitation. The analyte residual concentration was then measured in the supernatants obtained upon centrifugation. The same method was also used to evaluate the inhibition effect of CHP by incubating serum samples with equimolar amounts of carnosine and CHP.

[3] = set-up: method as in PMID 1424308; details: cited from earlier work
[4] = target: T1, human serum carnosinase (hCN1) (Homo sapiens, UniProt Q96KN2); assay: Inhibition effect of CHP on serum carnosinase (carnosine hydrolysis in serum); format: biochemical; details: serum incubated with equimolar carnosine and CHP; decrease not statistically significant
T1 construct: from tissue; host or cells: serum
T1 sequence (Q96KN2 26-507): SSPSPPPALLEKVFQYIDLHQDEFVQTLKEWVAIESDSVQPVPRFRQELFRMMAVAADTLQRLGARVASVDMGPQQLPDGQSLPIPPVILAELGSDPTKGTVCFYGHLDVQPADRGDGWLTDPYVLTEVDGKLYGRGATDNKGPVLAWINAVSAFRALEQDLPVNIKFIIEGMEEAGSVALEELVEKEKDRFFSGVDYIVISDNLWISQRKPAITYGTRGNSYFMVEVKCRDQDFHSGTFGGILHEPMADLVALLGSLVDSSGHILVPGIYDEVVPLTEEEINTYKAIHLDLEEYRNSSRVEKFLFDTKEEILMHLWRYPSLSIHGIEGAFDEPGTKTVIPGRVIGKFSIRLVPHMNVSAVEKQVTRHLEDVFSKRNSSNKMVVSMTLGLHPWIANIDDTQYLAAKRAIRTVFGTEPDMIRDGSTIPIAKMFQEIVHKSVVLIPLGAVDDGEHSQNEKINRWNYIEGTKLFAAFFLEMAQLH
Experimental: as §1

Row | Compound | HNE Quenching (%) 1 h [1] | HNE Quenching (%) 2 h [1] | HNE Quenching (%) 3 h [1] | half-life at 5 µM [2] | half-life in vivo [3] | Serum Stability t1/2 (min) ([2]; 5 µM) | retained carnosine hydrolytic activity [4]
1 | O=C(O)C(Cc1c[nH]cn1)NC(=O)C1CCCN1 [ProHis, L-Pro-L-His-OH dihydrochloride] | 20.39 ± 1.14% | 36.94 ± 0.80% | 49.87 ± 1.06% | 33.4 min | – | – | –
2 | NC(=O)C(Cc1c[nH]cn1)NC(=O)C1CCCN1 [ProHis-NH2, L-Pro-L-His-NH2] | 17.08 ± 1.11% | 27.66 ± 0.58% | 36.29 ± 1.08% | 128 min | – | – | –
3 | NC(=O)[C@@H]1CCCN1C(=O)[C@H](Cc1cnc[nH]1)NC(=O)[C@@H]1CCC(=O)N1 [TRH, thyrotropin-releasing hormone, reference compound] | 2.31 ± 6.72% | 4.16 ± 6.16% | 6.17 ± 6.41% | 24.4 min | 6.5 min | – | –
4 | NCCC(=O)N[C@@H](Cc1cnc[nH]1)C(=O)O [L-carnosine, reference compound] | 17.04 ± 6.17% | 29.05 ± 4.33% | 40.40 ±3.73% | 1.17 min | – | – | –
5 | O=C1NC(Cc2cnc[nH]2)C(=O)N2CCCC12 (centres unmarked) [CHP, Cyclo(His-Pro)] | 2.42 ± 0.71% | 5.46 ± 0.78% | 8.09 ± 0.77% | – | – | Stable | 85 ± 5%
6 | NC(Cc1cnc[nH]1)C(=O)N1CCCC1C(=O)O (centres unmarked) [HisPro, His-Pro] | −0.33 ± 0.45% | −0.26 ± 0.53% | 3.54 ± 1.66% | 3.08 min | – | – | –
